Our source for the minimal effective concentration and DiMf/DiL4 values is US11771738B2 (Zoetis Services LLC, priority 2018, dated 2023).

Type in all cases: cell-based
For experiment [1], the system named is third stage larvae of Haemonchus contortus. Put plainly: Haemonchus contortus, Larvae Stage 3 (HcL3) In Vitro Assay. The note with it: Haemonchus contortus, 96 h.
For another experiment, the system named is D. immitis L4 larvae. Put plainly: Dirofilaria immitis, L4 Stage (DiL4) In Vitro Assay. Conditions: for minimal effective concentration: Dirofilaria immitis, 72 h, read-out: DiL4 MED, Minimum Effective Dose, D. immitis L4 larvae motility, in vitro; for DiMf/DiL4: larval stage selectivity, ratio of DiMf MED to DiL4 MED.
In experiment [2] the test system is microfilariae of Dirofilaria immitis. Briefly: Dirofilaria immitis, Microfilaria (DiMf) In Vitro Assay. The note with it: Dirofilaria immitis, 72 h, read-out: DiMf MED, Minimum Effective Dose, D. immitis microfilariae motility, in vitro.
[3] abbreviates: read-out: HcL3 MED, Minimum Effective Dose, H. contortus third stage larvae, approximately 96 hours.
Setting [4] is: read-out: HcL3 MED (symbol after Ex#), approximately 96 hours incubation, multiple-resistant field isolate.
[5] abbreviates: read-out: HcL3 MED, approximately 96 hours incubation, multiple-resistant field isolate.

The structures appear in SMILES notation. Read-outs that look alike come from different tables or passages of the source.

With `CC(C)C[C@H]1C(=O)O[C@H](Cc2ccc(C(c3ccc(F)c(F)c3)n3cccn3)cc2)C(=O)N(C)[C@@H](CC(C)C)C(=O)O[C@H](C)C(=O)N(C)[C@@H](CC(C)C)C(=O)O[C@H](Cc2ccc(C(c3ccc(F)c(F)c3)n3cccn3)cc2)C(=O)N(C)[C@@H](CC(C)C)C(=O)O[C@H](C)C(=O)N1C` (stereo partly drawn) [Example 1-18, (3S,6R,9S,12R,15S,18R,21S,24R)-6,18-bis(4-((3,4-difluorophenyl)(1H-pyrazol-1-yl)methyl)benzyl)-3,9,15,21-tetraisobutyl-4,10,12,16,22,24-hexamethyl-1,7,13,19-tetraoxa-4,10,16,22-tetraazacyclotetracosan-2,5,8,11,14,17,20,23-octaone], the minimal effective concentration in experiment [1] (setting [3]) is over 100 µM; with D. immitis L4 larvae, under 0.0001 µM; in experiment [2], 0.003 µM. Besides, the DiMf/DiL4 in the experiment with D. immitis L4 larvae was over 30.
As for `CC(C)C[C@H]1C(=O)O[C@H](Cc2ccc(Cc3ccccc3)cc2)C(=O)N(C)[C@@H](CC(C)C)C(=O)O[C@H](C)C(=O)N(C)[C@@H](CC(C)C)C(=O)O[C@H](Cc2ccccc2)C(=O)N(C)[C@@H](CC(C)C)C(=O)O[C@H](C)C(=O)N1C` [Example 2-1, (3S,6R,9S,12R,15S,18R,21S,24R)-6-benzyl-18-(4-benzylbenzyl)-3,9,15,21-tetraisobutyl-4,10,12,16,22,24-hexamethyl-1,7,13,19-tetraoxa-4,10,16,22-tetraazacyclotetracosan-2,5,8,11,14,17,20,23-octaone], the minimal effective concentration in experiment [1] (setting [4]) is under 1 µM; in experiment [1] (setting [3]), 0.65 µM; in experiment [1] (setting [5]), at most 1 µM; in the experiment with D. immitis L4 larvae, 0.001 µM; in experiment [2], 0.02 µM. In addition, the DiMf/DiL4 in the experiment with D. immitis L4 larvae is 20.
As to `CC(C)C[C@H]1C(=O)O[C@H](Cc2ccc(Cc3ccc(F)cc3)cc2)C(=O)N(C)[C@@H](CC(C)C)C(=O)O[C@H](C)C(=O)N(C)[C@@H](CC(C)C)C(=O)O[C@H](Cc2ccccc2)C(=O)N(C)[C@@H](CC(C)C)C(=O)O[C@H](C)C(=O)N1C` [Example 2-4, (3S,6R,9S,12R,15S,18R,21S,24R)-6-benzyl-18-(4-(4-fluorobenzyl)benzyl)-3,9,15,21-tetraisobutyl-4,10,12,16,22,24-hexamethyl-1,7,13,19-tetraoxa-4,10,16,22-tetraazacyclotetracosan-2,5,8,11,14,17,20,23-octaone], the minimal effective concentration was 1 to 3.3 µM in experiment [1] (setting [4]), 3.3 µM in experiment [1] (setting [3]), 0.0007 µM in the experiment on D. immitis L4 larvae and 0.05 µM in experiment [2]. The DiMf/DiL4 in the experiment on D. immitis L4 larvae amounted to 71.4.
Consider `CCN(CC)C(c1ccc(C[C@H]2OC(=O)[C@H](CC(C)C)N(C)C(=O)[C@@H](C)OC(=O)[C@H](CC(C)C)N(C)C(=O)[C@@H](Cc3ccccc3)OC(=O)[C@H](CC(C)C)N(C)C(=O)[C@@H](C)OC(=O)[C@H](CC(C)C)N(C)C2=O)cc1)c1ccc(F)c(F)c1` (stereo partly drawn) [Example 2-36, (3S,6R,9S,12R,15S,18R,21S,24R)-6-benzyl-18-(4-((diethylamino)(3,4-difluorophenyl)methyl)benzyl)-3,9,15,21-tetraisobutyl-4,10,12,16,22,24-hexamethyl-1,7,13,19-tetraoxa-4,10,16,22-tetraazacyclotetracosan-2,5,8,11,14,17,20,23-octaone], for which the values for the minimal effective concentration (in experiment [1] (setting [3]); with D. immitis L4 larvae; in experiment [2]) were 1 µM, 0.0002 µM and 0.03 µM, respectively. The DiMf/DiL4 with D. immitis L4 larvae was found to be 150.
Regarding `COC(c1ccc(C[C@H]2OC(=O)[C@H](CC(C)C)N(C)C(=O)[C@@H](C)OC(=O)[C@H](CC(C)C)N(C)C(=O)[C@@H](Cc3ccccc3)OC(=O)[C@H](CC(C)C)N(C)C(=O)[C@@H](C)OC(=O)[C@H](CC(C)C)N(C)C2=O)cc1)c1ccc(F)c(F)c1` (stereo partly drawn) [Example 2-37, (3S,6R,9S,12R,15S,18R,21S,24R)-6-benzyl-18-(4-((3,4-difluorophenyl)(methoxy)methyl)benzyl)-3,9,15,21-tetraisobutyl-4,10,12,16,22,24-hexamethyl-1,7,13,19-tetraoxa-4,10,16,22-tetraazacyclotetracosan-2,5,8,11,14,17,20,23-octaone], the minimal effective concentration was 1 to 3.3 µM in experiment [1] (setting [4]), 3.3 µM in experiment [1] (setting [3]), 0.001 µM with D. immitis L4 larvae and 0.02 µM in experiment [2]. Moreover, the DiMf/DiL4 in the experiment on D. immitis L4 larvae worked out at 20.
For the compound `CCOC(c1ccc(C[C@H]2OC(=O)[C@H](CC(C)C)N(C)C(=O)[C@@H](C)OC(=O)[C@H](CC(C)C)N(C)C(=O)[C@@H](Cc3ccccc3)OC(=O)[C@H](CC(C)C)N(C)C(=O)[C@@H](C)OC(=O)[C@H](CC(C)C)N(C)C2=O)cc1)c1ccc(F)c(F)c1` (stereo partly drawn) [Example 2-38, (3S,6R,9S,12R,15S,18R,21S,24R)-6-benzyl-18-(4-((3,4-difluorophenyl)(ethoxy)methyl)benzyl)-3,9,15,21-tetraisobutyl-4,10,12,16,22,24-hexamethyl-1,7,13,19-tetraoxa-4,10,16,22-tetraazacyclotetracosan-2,5,8,11,14,17,20,23-octaone], the minimal effective concentration in experiment [1] (setting [4]) was under 1 µM; in experiment [1] (setting [3]), 0.5 µM; in experiment [1] (setting [5]), at most 1 µM; with D. immitis L4 larvae, 0.0006 µM; in experiment [2], 0.03 µM. Besides, the DiMf/DiL4 in the experiment with D. immitis L4 larvae is 50.
As to `CC(C)C[C@H]1C(=O)O[C@H](Cc2ccc([C@@H](c3ccc(OC(F)(F)F)cc3)N3CCOCC3)cc2)C(=O)N(C)[C@@H](CC(C)C)C(=O)O[C@H](C)C(=O)N(C)[C@@H](CC(C)C)C(=O)O[C@H](Cc2ccccc2)C(=O)N(C)[C@@H](CC(C)C)C(=O)O[C@@H](C)C(=O)N1C` [Example 2-42, (3S,6R,9S,12R,15S,18R,21S,24S)-6-benzyl-3,9,15,21-tetraisobutyl-4,10,12,16,22,24-hexamethyl-18-[[4-[(S)-morpholino-[4-(trifluoromethoxy)phenyl]-methyl]phenyl]methyl]-1,7,13,19-tetraoxa-4,10,16,22-tetrazacyclotetracosane-2,5,8,11,14,17,20,23-octaone], the minimal effective concentration is over 10 µM in experiment [1] (setting [3]), 0.0003 µM with D. immitis L4 larvae and 0.3 µM in experiment [2]. Moreover, the DiMf/DiL4 with D. immitis L4 larvae is given as 1000.
Take `CC(C)C[C@H]1C(=O)O[C@H](Cc2ccc(Cc3cccs3)cc2)C(=O)N(C)[C@@H](CC(C)C)C(=O)O[C@H](C)C(=O)N(C)[C@@H](CC(C)C)C(=O)O[C@H](Cc2ccc(Cc3cccs3)cc2)C(=O)N(C)[C@@H](CC(C)C)C(=O)O[C@H](C)C(=O)N1C` [Example 3-4, (3S,6R,9S,12R,15S,18R,21S,24R)-3,9,15,21-tetraisobutyl-4,6,10,16,18,22-hexamethyl-12,24-bis(4-(thiophen-2-ylmethyl)benzyl)-1,7,13,19-tetraoxa-4,10,16,22-tetraazacyclotetracosan-2,5,8,11,14,17,20,23-octaone]: the minimal effective concentration is under 1 µM in experiment [1] (read-out: HcL3 MED, Haemonchus contortus third stage larvae in vitro, class mark appended to the Ex # in Table 3); 0.5 µM in experiment [1] (setting [3]); at most 1 µM in experiment [1] (setting [5]); 0.0001 µM with D. immitis L4 larvae; 0.02 µM in experiment [2]. Moreover, the DiMf/DiL4 with D. immitis L4 larvae is given as 200.
